Data reported in article PMC7151638, “Investigation of a thermostable multi-domain xylanase-glucuronoyl esterase enzyme from Caldicellulosiruptor kristjanssonii incorporating multiple carbohydrate-binding modules” (Biotechnology for Biofuels, 2020).

Target: T1, CkGE15A (Caldicellulosiruptor acetigenus, UniProt E4S6E9)
T1 construct: gene Calkr_2245; CE15 glucuronoyl esterase domain only, cut from the 191-kDa multidomain protein (CBM22-CBM22-GH10-CBM9-CBM9-CBM9-CE15-cadherin-SLH-SLH); modified pET-28a with TEV site, E. coli BL21, Ni IMAC
T1 sequence (E4S6E9 1270-1690 limits assumed): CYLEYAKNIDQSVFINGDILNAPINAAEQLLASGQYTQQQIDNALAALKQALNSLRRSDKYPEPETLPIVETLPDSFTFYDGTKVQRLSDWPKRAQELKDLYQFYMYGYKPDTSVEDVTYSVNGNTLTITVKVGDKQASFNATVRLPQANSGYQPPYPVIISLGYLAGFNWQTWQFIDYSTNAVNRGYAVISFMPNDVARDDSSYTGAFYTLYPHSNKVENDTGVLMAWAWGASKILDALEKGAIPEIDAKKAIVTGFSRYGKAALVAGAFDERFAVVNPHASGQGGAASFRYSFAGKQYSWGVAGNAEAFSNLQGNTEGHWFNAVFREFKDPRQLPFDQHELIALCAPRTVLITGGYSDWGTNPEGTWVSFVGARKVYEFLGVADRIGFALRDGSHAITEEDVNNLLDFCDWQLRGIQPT
Experiment: continuous coupled assay of uronic acid release (K-URONIC kit, NADH at […] nm)
Format: biochemical
Settings: 22 °C; pH 7.5; printed as 'Cannot be saturated up to 40 mM'

Compound | Km
C=CCOC(=O)[C@H]1OC(O)[C@H](O)[C@@H](O)[C@@H]1O (stereo partly drawn) [AllGlcA, Allyl-D-glucuronoate] | > 40 mM
COC(=O)[C@H]1OC(O)[C@H](O)[C@@H](O)[C@@H]1O (stereo partly drawn) [MeGlcA, Methyl-D-glucuronoate] | > 40 mM
